Test results published in US20130261066A1, “TREATMENT OF INFLAMMATORY BOWEL DISEASES USING A TRIPEPTIDE” (THE RESEARCH FOUNDATION OF STATE UNIVERSITY OF NEW YORK, priority 2010, published 2013).
“Also recorded” adds a separate entry of the source.

Tests used:
Type in all cases: in vivo
myeloperoxidase (MPO) = test: Myeloperoxidase activity in colon tissue of DSS-treated mice
Experimental: To further assess the effect of MC12 on the inflammatory changes associated with DSS induced colitis, myeloperoxidase (MPO) activity and cytosolic phospholipase A2 (cPLA2) in tissue samples was determined.
MPO activity is an indicator of the degree of acute inflammation in a given tissue. MPO activity was measured using a commercial kit and following the instructions of the manufacturer (Invitrogen, Eugene, Oreg.). Briefly, a portion of colon tissue was homogenized in PBS and centrifuged at 10,000×g for 15 min and 50 μl of supernatant from each sample were added into a 96-well microplate. 50 μl of 2×APF working solution was added to all sample and standard wells and the plate was incubated at room temperature for 30 min. The reaction was stopped by adding 10 μl of 10× chlorination inhibitor. The fluorescence intensity was measured using a Multiplate Reader (Molecular Devices) at excitation at 485 nm, emission at 530 nm.
To assess the effect of MC-12 on the inflammatory changes associated with DSS-induced colitis, myeloperoxidase activity in tissue samples was determined as above.

[1] = system: cytosolic phospholipase A2 (cPLA2); test: cPLA2 activity in colon tissue of DSS-treated mice
Source text: cPLA2 enzymes release fatty acids from the second carbon group of glycerol. This particular phospholipase specifically recognizes the sn-2 acyl bond of phospholipids and catalytically hydrolyzes the bond releasing a lysopospholipid and arachidonic acid; the latter is then modified by cyclooxygenases into active compounds called eicosanoids by cyclooxygenases. Eicosanoids include prostaglandins and leukotrienes which are categorized as inflammatory mediators. […] Treatment with MC12 decreased cPLA2 activity by 18% at 40 μg and 26% at the dose of 80 μg (p<0.05).
We also determined the activity of cytosolic phospholipase A2 (cPLA2) in colonic tissues from study mice. cPLA2s are enzymes that release fatty acids from the second carbon group of glycerol. This particular […] specifically recognizes the sn-2 acyl bond of phospholipids and catalytically hydrolyzes the bond releasing arachidonic acid and lysophospholipids, which are then modified into active compounds called eicosanoids by cyclooxygenases. Eicosanoids include prostaglandins and leukotrienes which are categorized as inflammatory mediators.
A cPLA2 assay kit (Cayman, Ann Arbor, Mich.) was used to determine cPLA2 activity following the instructions of the manufacturer. Briefly, a portion of colon tissue was homogenized in cold PBS and centrifuged at 10,000×g for 15 minutes and 10 μl of supernatant from each sample and 5 μl assay buffer were added into a 96-well microplate. The reaction was initialized by adding 200 μl substrate solutions to all wells and incubating for 5 min at room temperature. The fluorescence intensity was measured using a Multiplate Reader (Molecular Devices) at excitation at 485 nm, emission at 530 nm.

NF-κB = test: Phospho-NF-κB p65 immunohistochemistry of colonic mucosa, DSS mice; conditions: for NF-κB activation / nuclear translocation in colonic mucosa: MC-12 5 and 25 mg/kg, ip and po
Source text: NF-κB is the master regulator of inflammation, controlling the transcription of many genes related to this complex process. It is also the molecular target of the activity of MC 12. Therefore, we determined by immunohistochemistry the level of NF-κB activation in the colonic mucosa of our four study groups of mice. There was minimum or […] activation of NF-κB in the colon of control animals (FIG. 4A). DSS, as expected, activated NF-κB in both colonic crypts and stromal cells (FIG. 4B).
The level of NF-κB activation in the colonic mucosa was determined by immunohistochemistry (FIG. 9). NF-κB is the molecular target of MC-12. Immunohistochemical staining for phospho-NF-κB (activate form of NF-κB) was performed on the colon tissue samples. Briefly, paraffin-embedded sections (4 μm thick) were deparaffinized, rehydrated, and microwave heated for 15 minutes in 0.01 mol/L citric acid buffer (pH 6.0) for antigen retrieval. Then, 3% hydrogen peroxide was applied to block endogenous peroxidase activity. After 30 minutes of blocking with normal serum (Invitrogen, Carlsbad, Calif.), the primary rabbit anti-phospho-NF-κB p65 antibody (Cell Signaling) or corresponding control isotype IgG were applied and incubated overnight at 4° C. Slides were washed thrice with PBS, each for 5 minutes. The biotinylated secondary antibody and the streptavidin-biotin complex were applied, each for 60 minutes incubation and following a thrice-wash at room temperature. After rinsing with PBS, the slides were immersed for 10 minutes in 3,3′-diaminobenzidine (Sigma, St. Louis, Mo.) solution (0.4 mg/mL, with 0.003% hydrogen peroxide), monitored under microscope. The reactions were stopped with distilled water. The slides were counterstained with hematoxylin, dehydrated, and coverslipped. Five photos per section were taken and the positive luminosity was evaluated using PhotoShop program.

Substance: Gln-Ala-Trp (QAW) [MC12]
- MPO activity (myeloperoxidase (MPO); MC12 80 μg dose): essentially normalized
- MPO activity (myeloperoxidase (MPO); MC12 40 or 80 μg): significant (p<0.01) and concentration-dependent reduction in MPO activity
- MPO activity (myeloperoxidase (MPO); MC-12 25 mg/kg): essentially normalized
- MPO activity (myeloperoxidase (MPO); MC-12 5 or 25 mg/kg): significant (p<0.01) and concentration-dependent reduction in MPO activity
- decrease of cPLA2 activity ([1]; MC12 40 μg): 18%
- decrease of cPLA2 activity ([1]; MC12 80 μg, p<0.05): 26%
- decrease of cPLA2 activity ([1]; MC-12 5 mg/kg): 18%
- decrease of cPLA2 activity ([1]; MC-12 25 mg/kg, p<0.05): 24%
- NF-κB activation in colonic mucosa (NF-κB; MC12 40 and 80 μg ip): less NF-κB nuclear translocation; also recorded: markedly decreased this effect of DSS
- NF-κB activation / nuclear translocation in colonic mucosa (NF-κB; listed as MC 12): marked decrease of NF-κB nuclear translocation
- NF-κB activation / nuclear translocation in colonic mucosa (NF-κB; listed as MC-12): markedly decreased this effect of DSS in a clear dose-dependent manner
- NF-κB activation in colonic mucosa (NF-κB; highest dose 25 mg/kg): essentially normalizing it
